Measured values as given in article PMC6478789, “A chemical toolbox for the study of bromodomains and epigenetic signaling” (Nature Communications, 2019).

biological target: TDRD3 (Homo sapiens, UniProt Q9H7E2); assay: Temperature shift assay (non-BRD reader domains); type: binding; conditions: 10µM compound
Method: (§1) Temperature shift assays have been described by Fedorov et al.[46]. Recombinant protein domains (bromodomain or kinases) at a concentration of 2 μM in 10 mM HEPES, pH 7.5, and 500 mM NaCl were mixed with 10 μM of chemical probes. Temperature-dependent protein unfolding profiles were measured using a Real-Time PCR Mx3005p machine (Stratagene).
(§2) Wu et al., Supplementary figures and tables 14
(§3) Supplementary Table 3: Selectivity screening data (non-BRD reader domains):
(§4) Temperature shift assay data of BRD probes screened against a diver se panel of methyl-lysine
(§5) reader domains. Compounds were screened a concentration of 10 µM. Shown are temperature

Chain of TDRD3 (Q9H7E2 555-615 limits assumed, species assumed): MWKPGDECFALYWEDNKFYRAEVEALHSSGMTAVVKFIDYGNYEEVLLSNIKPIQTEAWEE

Row | Structure (SMILES) | Tm (C) 10µM, temperature shift
1 | COc1cc(Cl)c(C(=O)N[C@@H](CN[C@H]2CC[C@@H](N)CC2)Cc2ccc(C#N)cc2)cc1-c1ccc(CN[C@H](C)c2ccc(C)cc2)o1 [BAY-850] | -1.8 Kelvin
2 | CN(C)CCCOc1ccc(-c2cc(NCCCn3cccn3)nc(S(C)(=O)=O)n2)cc1 [TP-238] | -0.7 Kelvin

tested on: RBBP1; assay: Temperature shift assay (non-BRD reader domains); type: binding; conditions: 10µM compound
Method: as §1, §2, §3, §4, §5

Row | Structure (SMILES) | Tm (C) 10µM, temperature shift
3 | COc1cc(Cl)c(C(=O)N[C@@H](CN[C@H]2CC[C@@H](N)CC2)Cc2ccc(C#N)cc2)cc1-c1ccc(CN[C@H](C)c2ccc(C)cc2)o1 [BAY-850] | -1.0 Kelvin
4 | CN(C)CCCOc1ccc(-c2cc(NCCCn3cccn3)nc(S(C)(=O)=O)n2)cc1 [TP-238] | -0.4 Kelvin

biological target: WDR5 (Homo sapiens, UniProt P61964); assay: Temperature shift assay (non-BRD reader domains); type: binding; conditions: 10µM compound
Method: as §1, §2, §3, §4, §5

Row | Structure (SMILES) | Tm (C) 10µM, temperature shift
5 | COc1cc(Cl)c(C(=O)N[C@@H](CN[C@H]2CC[C@@H](N)CC2)Cc2ccc(C#N)cc2)cc1-c1ccc(CN[C@H](C)c2ccc(C)cc2)o1 [BAY-850] | 0.2 Kelvin
6 | CN(C)CCCOc1ccc(-c2cc(NCCCn3cccn3)nc(S(C)(=O)=O)n2)cc1 [TP-238] | 0.2 Kelvin

biological target: 53BP1 (Homo sapiens, UniProt Q12888); assay: Temperature shift assay (non-BRD reader domains); type: binding; conditions: 10µM compound
Sequence (Q12888 1484-1603 limits assumed, species assumed): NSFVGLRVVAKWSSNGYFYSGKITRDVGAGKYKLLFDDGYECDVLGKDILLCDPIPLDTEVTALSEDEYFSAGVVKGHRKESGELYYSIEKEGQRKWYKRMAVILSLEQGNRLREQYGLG
Method: as §1, §2, §3, §4, §5

Row | Structure (SMILES) | Tm (C) 10µM, temperature shift
7 | COc1cc(Cl)c(C(=O)N[C@@H](CN[C@H]2CC[C@@H](N)CC2)Cc2ccc(C#N)cc2)cc1-c1ccc(CN[C@H](C)c2ccc(C)cc2)o1 [BAY-850] | -0.7 Kelvin
8 | CN(C)CCCOc1ccc(-c2cc(NCCCn3cccn3)nc(S(C)(=O)=O)n2)cc1 [TP-238] | 0.4 Kelvin

biological target: T1, SND1 (Homo sapiens, UniProt Q7KZF4); assay: Temperature shift assay (non-BRD reader domains); type: binding; conditions: 10µM compound
T1 sequence (Q7KZF4 729-787 limits assumed): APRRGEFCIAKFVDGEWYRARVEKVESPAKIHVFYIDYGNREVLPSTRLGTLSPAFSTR
Method: as §1, §2, §3, §4, §5

Row | Structure (SMILES) | Tm (C) 10µM, temperature shift
9 | COc1cc(Cl)c(C(=O)N[C@@H](CN[C@H]2CC[C@@H](N)CC2)Cc2ccc(C#N)cc2)cc1-c1ccc(CN[C@H](C)c2ccc(C)cc2)o1 [BAY-850] | -1.6 Kelvin
10 | CN(C)CCCOc1ccc(-c2cc(NCCCn3cccn3)nc(S(C)(=O)=O)n2)cc1 [TP-238] | -0.5 Kelvin

biological target: FXR1 (Homo sapiens, UniProt P51114); assay: Temperature shift assay (non-BRD reader domains); type: binding; conditions: 10µM compound
Sequence (P51114 2-132 limits assumed, species assumed): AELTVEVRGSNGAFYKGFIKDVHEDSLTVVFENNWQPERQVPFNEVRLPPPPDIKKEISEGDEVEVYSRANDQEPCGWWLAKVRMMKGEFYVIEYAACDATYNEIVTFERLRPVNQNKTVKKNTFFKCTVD
Method: as §1, §2, §3, §4, §5

Row | Structure (SMILES) | Tm (C) 10µM, temperature shift
11 | COc1cc(Cl)c(C(=O)N[C@@H](CN[C@H]2CC[C@@H](N)CC2)Cc2ccc(C#N)cc2)cc1-c1ccc(CN[C@H](C)c2ccc(C)cc2)o1 [BAY-850] | -1.7 Kelvin
12 | CN(C)CCCOc1ccc(-c2cc(NCCCn3cccn3)nc(S(C)(=O)=O)n2)cc1 [TP-238] | 0.4 Kelvin

biological target: BRPF3 (Homo sapiens, UniProt Q9ULD4); assay: Temperature shift assay (non-BRD reader domains); type: binding; conditions: 10µM compound
Sequence (Q9ULD4 1076-1159 limits assumed, species assumed): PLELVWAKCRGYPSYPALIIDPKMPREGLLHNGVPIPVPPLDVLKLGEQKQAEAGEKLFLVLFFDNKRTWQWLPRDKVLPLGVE
Method: as §1, §2, §3, §4, §5

Row | Structure (SMILES) | Tm (C) 10µM, temperature shift
13 | COc1cc(Cl)c(C(=O)N[C@@H](CN[C@H]2CC[C@@H](N)CC2)Cc2ccc(C#N)cc2)cc1-c1ccc(CN[C@H](C)c2ccc(C)cc2)o1 [BAY-850] | -0.4 Kelvin
14 | CN(C)CCCOc1ccc(-c2cc(NCCCn3cccn3)nc(S(C)(=O)=O)n2)cc1 [TP-238] | 0.2 Kelvin

biological target: T2, UHRF1 (Homo sapiens, UniProt Q96T88); assay: Temperature shift assay (non-BRD reader domains); type: binding; conditions: 10µM compound
T2 sequence (Q96T88 126-285 limits assumed): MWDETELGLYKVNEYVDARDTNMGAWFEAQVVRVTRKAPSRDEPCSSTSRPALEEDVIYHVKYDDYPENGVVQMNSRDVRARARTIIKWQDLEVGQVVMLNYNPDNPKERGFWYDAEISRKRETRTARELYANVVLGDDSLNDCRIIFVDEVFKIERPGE
Method: as §1, §2, §3, §4, §5

Row | Structure (SMILES) | Tm (C) 10µM, temperature shift
15 | COc1cc(Cl)c(C(=O)N[C@@H](CN[C@H]2CC[C@@H](N)CC2)Cc2ccc(C#N)cc2)cc1-c1ccc(CN[C@H](C)c2ccc(C)cc2)o1 [BAY-850] | -0.3 Kelvin
16 | CN(C)CCCOc1ccc(-c2cc(NCCCn3cccn3)nc(S(C)(=O)=O)n2)cc1 [TP-238] | 0.0 Kelvin

biological target: EED (Homo sapiens, UniProt O75530); assay: Temperature shift assay (non-BRD reader domains); type: binding; conditions: 10µM compound
Sequence (O75530 whole entry, species assumed, the tested form may be a part): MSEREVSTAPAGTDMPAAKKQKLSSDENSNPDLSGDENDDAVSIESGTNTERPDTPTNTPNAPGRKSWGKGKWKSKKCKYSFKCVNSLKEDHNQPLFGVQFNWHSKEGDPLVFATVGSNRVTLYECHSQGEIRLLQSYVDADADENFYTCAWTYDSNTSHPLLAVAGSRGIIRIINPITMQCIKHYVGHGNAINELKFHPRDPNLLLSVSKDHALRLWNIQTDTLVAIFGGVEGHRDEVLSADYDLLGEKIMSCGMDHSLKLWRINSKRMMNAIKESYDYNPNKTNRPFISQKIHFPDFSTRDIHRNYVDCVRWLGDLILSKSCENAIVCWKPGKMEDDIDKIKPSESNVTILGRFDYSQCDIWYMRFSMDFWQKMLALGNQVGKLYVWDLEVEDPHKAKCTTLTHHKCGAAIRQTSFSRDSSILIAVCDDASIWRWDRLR
Method: as §1, §2, §3, §4, §5

Row | Structure (SMILES) | Tm (C) 10µM, temperature shift
17 | CN(C)CCCOc1ccc(-c2cc(NCCCn3cccn3)nc(S(C)(=O)=O)n2)cc1 [TP-238] | -0.3 Kelvin
